# Assay results reported in patent US6737383B1, “Herbicidal oxadiazolidines” (priority 1999, dated 2004).
# Columns and labels:
# soybean = assay: Test B pre/postemergence soybean; type: in vivo, Glycine max
# Procedure, shortened: (§1)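 Herbicidal effect was estimated by eye on a ten-point control scale after plants spent twelve to sixteen days in a greenhouse following soil or foliar treatment. Foliar sprays targeted plants at one to four leaves; all doses were formulated in a non-phytotoxic solvent with surfactant.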
# sugar beet = assay: Test B pre/postemergence sugar beet; type: in vivo, Beta vulgaris
# Procedure, shortened: as §1
# rape = assay: Test B pre/postemergence rape; type: in vivo, Brassica napus
# Procedure, shortened: as §1
# corn = assay: Test B pre/postemergence corn; type: in vivo, Zea mays
# Procedure, shortened: as §1
# morningglory = assay: Test B pre/postemergence morningglory; type: in vivo, Ipomoea hederacea
# Procedure, shortened: as §1
# giant foxtail = assay: Test B pre/postemergence giant foxtail; type: in vivo, Setaria faberii
# Procedure, shortened: as §1
# surinam grass = assay: Test B pre/postemergence surinam grass; type: in vivo, Brachiaria decumbens
# Procedure, shortened: as §1
# purple nutsedge = assay: Test B pre/postemergence purple nutsedge; type: in vivo, Cyperus rotundus
# Procedure, shortened: as §1
# crabgrass = assay: Test B pre/postemergence crabgrass; type: in vivo, Digitaria sanguinalis
# Procedure, shortened: as §1
# cocklebur = assay: Test B pre/postemergence cocklebur; type: in vivo, Xanthium strumarium
# Procedure, shortened: as §1
# bedstraw = assay: Test B pre/postemergence bedstraw; type: in vivo, Galium aparine
# Procedure, shortened: as §1
# velvetleaf = assay: Test B pre/postemergence velvetleaf; type: in vivo, Abutilon theophrasti
# Procedure, shortened: as §1
# blackgrass = assay: Test B pre/postemergence blackgrass; type: in vivo, Alopecurus myosuroides
# Procedure, shortened: as §1
# wheat = assay: Test B pre/postemergence wheat; type: in vivo, Triticum aestivum
# Procedure, shortened: as §1
# pigweed = assay: Test B pre/postemergence pigweed; type: in vivo, Amaranthus retroflexus
# Procedure, shortened: as §1
# wild oat = assay: Test B pre/postemergence wild oat; type: in vivo, Avena fatua
# Procedure, shortened: as §1
# [1] = Postemergence, Rate 62 g/ha, scale of 0 to 10, 0 is no effect, 10 is complete control
# [2] = Preemergence, Rate 62 g/ha, scale 0 to 10 (0 no effect, 10 complete control)
# [3] = Preemergence, Rate 125 g/ha, scale 0 to 10, 0 is no effect, 10 is complete control
# [4] = Preemergence, Rate 500 g/ha, scale of 0 to 10 where 0 is no effect and 10 is complete control
# [5] = Rate 250 g/ha, Postemergence, scale of 0 to 10 where 0 is no effect and 10 is complete control
# [6] = Postemergence, Rate 500 g/ha, scale 0 to 10, 0 is no effect, 10 is complete control
# [7] = Postemergence, Rate 125 g/ha, scale 0 to 10, 0 is no effect, 10 is complete control
smiles,measurement,setting,value
CCC(=O)Cn1c(=O)on(C(=O)N(c2ccc(Cl)cc2)C(C)C)c1=O [Compound 553],Soybean plant response rating,soybean; [1],1
same,Soybean plant response rating,soybean; [2],0
same,Soybean plant response rating,soybean; [3],0
same,Soybean plant response rating (0 to 10 scale),"soybean; Preemergence, Rate 250 g/ha",0
same,Soybean plant response rating,soybean; [4],3
same,"Plant response rating, Soybean",soybean; [5],3
same,Sugarbeets plant response rating,sugar beet; [1],0
same,"Plant response rating, Sugarbeets",sugar beet; [6],2
same,Sugarbeets plant response rating,sugar beet; [2],0
same,Sugarbeets plant response rating,sugar beet; [3],3
same,Sugarbeets plant response rating (0 to 10 scale),"sugar beet; Preemergence, Rate 250 g/ha",3
same,"Plant response rating, Sugarbeets",sugar beet; [5],0
same,Rape plant response rating,rape; [1],2
same,Rape plant response rating,rape; [7],6
same,Rape plant response rating,rape; [2],0
same,Rape plant response rating,rape; [3],3
same,Rape plant response rating (0 to 10 scale),"rape; Preemergence, Rate 250 g/ha",3
same,"Plant response rating, Rape",rape; [5],7
same,Corn plant response rating,corn; [1],0
same,Corn plant response rating,corn; [7],0
same,"Plant response rating, Corn",corn; [6],0
same,Corn plant response rating,corn; [2],0
same,Corn plant response rating,corn; [3],0
same,Corn plant response rating (0 to 10 scale),"corn; Preemergence, Rate 250 g/ha",0
same,Corn plant response rating,corn; [4],3
same,"Plant response rating, Corn",corn; [5],0
same,Morningglory plant response rating,morningglory; [1],0
same,Morningglory plant response rating,morningglory; [7],0
same,"Plant response rating, Morningglory",morningglory; [6],0
same,Morningglory plant response rating,morningglory; [2],0
same,Morningglory plant response rating,morningglory; [3],0
same,Morningglory plant response rating (0 to 10 scale),"morningglory; Preemergence, Rate 250 g/ha",0
same,Morningglory plant response rating,morningglory; [4],2
same,"Plant response rating, Morningglory",morningglory; [5],0
same,Giant foxtail plant response rating,giant foxtail; [1],0
same,Giant foxtail plant response rating,giant foxtail; [7],7
same,"Plant response rating, Giant foxtail",giant foxtail; [6],7
same,Giant foxtail plant response rating,giant foxtail; [2],10
same,Giant foxtail plant response rating,giant foxtail; [3],10
same,Giant foxtail plant response rating (0 to 10 scale),"giant foxtail; Preemergence, Rate 250 g/ha",10
same,Giant foxtail plant response rating,giant foxtail; [4],10
same,"Plant response rating, Giant foxtail",giant foxtail; [5],6
same,B. signalgrass plant response rating,surinam grass; [1],0
same,B. signalgrass plant response rating,surinam grass; [7],0
same,"Plant response rating, B. signalgrass",surinam grass; [6],5
same,B. signalgrass plant response rating,surinam grass; [2],6
same,B. signalgrass plant response rating,surinam grass; [3],9
same,"B. signalgrass plant response rating (0 to 10 scale, 0 is no effect, 10 is complete control)","surinam grass; Preemergence, Rate 250 g/ha",9
same,B. signalgrass plant response rating,surinam grass; [4],8
same,"Plant response rating, B. signalgrass",surinam grass; [5],3
same,Nutsedge plant response rating,purple nutsedge; [1],0
same,Nutsedge plant response rating,purple nutsedge; [7],0
same,Nutsedge plant response rating,purple nutsedge; [2],0
same,Nutsedge plant response rating,purple nutsedge; [3],0
same,Nutsedge plant response rating (0 to 10 scale),"purple nutsedge; Preemergence, Rate 250 g/ha",0
same,Nutsedge plant response rating,purple nutsedge; [4],0
same,"Plant response rating, Nutsedge",purple nutsedge; [5],0
same,Crabgrass plant response rating,crabgrass; [1],0
same,Crabgrass plant response rating,crabgrass; [7],3
same,"Plant response rating, Crabgrass",crabgrass; [6],9
same,Crabgrass plant response rating,crabgrass; [2],10
same,Crabgrass plant response rating,crabgrass; [3],9
same,Crabgrass plant response rating (0 to 10 scale),"crabgrass; Preemergence, Rate 250 g/ha",10
same,Crabgrass plant response rating,crabgrass; [4],10
same,"Plant response rating, Crabgrass",crabgrass; [5],8
same,Cocklebur plant response rating,cocklebur; [1],0
same,"Plant response rating, Cocklebur",cocklebur; [6],2
same,Cocklebur plant response rating,cocklebur; [3],0
same,Cocklebur plant response rating (0 to 10 scale),"cocklebur; Preemergence, Rate 250 g/ha",0
same,Cocklebur plant response rating,cocklebur; [4],10
same,"Plant response rating, Cocklebur",cocklebur; [5],0
same,Bedstraw plant response rating,bedstraw; [1],0
same,Bedstraw plant response rating,bedstraw; [7],2
same,"Plant response rating, Bedstraw",bedstraw; [6],7
same,Bedstraw plant response rating,bedstraw; [2],0
same,Bedstraw plant response rating,bedstraw; [3],0
same,Bedstraw plant response rating (0 to 10 scale),"bedstraw; Preemergence, Rate 250 g/ha",2
same,Bedstraw plant response rating,bedstraw; [4],10
same,"Plant response rating, Bedstraw",bedstraw; [5],2
same,Velvetleaf plant response rating,velvetleaf; [2],0
same,Velvetleaf plant response rating,velvetleaf; [3],0
same,Velvetleaf plant response rating (0 to 10 scale),"velvetleaf; Preemergence, Rate 250 g/ha",0
same,Velvetleaf plant response rating,velvetleaf; [4],2
same,"Plant response rating, Velvetleaf",velvetleaf; [5],5
same,Blackgrass plant response rating,blackgrass; [1],0
same,Blackgrass plant response rating,blackgrass; [7],0
same,"Plant response rating, Blackgrass",blackgrass; [6],7
same,Blackgrass plant response rating,blackgrass; [2],7
same,Blackgrass plant response rating,blackgrass; [3],7
same,Blackgrass plant response rating (0 to 10 scale),"blackgrass; Preemergence, Rate 250 g/ha",7
same,"Plant response rating, Blackgrass",blackgrass; [5],3
same,Wheat plant response rating,wheat; [1],0
same,"Plant response rating, Wheat",wheat; [6],3
same,Wheat plant response rating,wheat; [3],0
same,Wheat plant response rating (0 to 10 scale),"wheat; Preemergence, Rate 250 g/ha",0
same,"Plant response rating, Wheat",wheat; [5],0
same,Redroot pigweed plant response rating,pigweed; [1],0
same,"Plant response rating, Redroot pigweed",pigweed; [6],0
same,Redroot pigweed plant response rating,pigweed; [2],0
same,Redroot pigweed plant response rating,pigweed; [3],7
same,Redroot pigweed plant response rating (0 to 10 scale),"pigweed; Preemergence, Rate 250 g/ha",9
same,"Plant response rating, Redroot pigweed",pigweed; [5],0
same,Wild oats plant response rating,wild oat; [1],0
same,"Plant response rating, Wild oats",wild oat; [6],2
same,Wild oats plant response rating,wild oat; [2],0
same,Wild oats plant response rating,wild oat; [3],0
same,Wild oats plant response rating (0 to 10 scale),"wild oat; Preemergence, Rate 250 g/ha",3
same,"Plant response rating, Wild oats",wild oat; [5],2
